Results from patent US5290689A, “New cyclic FR-900520 microbial biotransformation agent” (Merck & Co., Inc., priority 1992, dated 1994).
Entries after “also recorded” stand apart in the source; their conditions may differ.

What was measured:
[1] = test system: mouse T lymphocytes (Splenic T-cells stimulated with ionomycin + PMA); assay: T-cell proliferation assay (ionomycin + PMA stimulated, tritiated thymidine uptake); type: cell-based, mouse (C57B1/6)
Description: The principle of this assay is to measure the proliferation of mouse T lymphocytes stimulated with the combination of ionomycin plus PMA. A positive sample, e.g. FK-506, in this assay will inhibit T-cell proliferation, as indicated by reduced tritiated thymidine uptake.
T-Cell Proliferation Assay
Purified Compound I, as prepared by HPLC above, was dissolved in absolute ethanol at 1 mg/ml.
Spleens from C57B1/6 mice were taken under sterile conditions and gently dissociated in ice-cold RPMI 1640 culture medium (GIBCO, Grand Island, N.Y.) supplemented with 10% heat-inactivated fetal calf serum (GIBCO). Cells were pelleted by centrifugation at 1500 rpm for 8 minutes. Contaminating red cells were removed by treating the pellet with ammonium chloride lysing buffer (GIBCO) for 2 minutes at 4° C. […]
Purified T lymphocytes were resuspended at 2.5×10^5 cells/ml in complete culture medium composed of RPMI 1640 medium with 10% heat-inactivated fetal calf serum, […], 1 mM sodium pyruvate, 2×10^-5 M 2-mercaptoethanol and 50 μg/ml gentamycin. […] Radioactivity of filter discs corresponding to individual wells was measured by standard liquid scintillation counting methods (Betacounter). Mean counts per minute of replicate wells were calculated and the results expressed as percent inhibition of tritiated thymidine uptake (proliferation) as follows: [formula] […]

[2] = reputed; EPO Publication No. 0184162; cited from earlier work

Compound	Inhibition of T-cell proliferation on addition of IL2 ([1]; 50 units/ml recombinant IL2 added at the initiation of culture)	immunosuppressant activity (inhibition of T-cell activation) ([1]; qualitative)	effectiveness as immunosuppressant relative to cyclosporin [2] [times]
CC[C@@H]1C=C2COC1(O)C[C@H](O)[C@@H](C)[C@@H](/C(C)=C/[C@@H]1CC[C@@H](O)[C@H](OC)C1)OC(=O)[C@@H]1CCCCN1C(=O)C(=O)[C@]1(O)O[C@H]([C@@H](OC)C[C@@H](C)C2)[C@@H](OC)C[C@H]1C [Compound I]	reversed	positive inhibition of T-cell activation; also recorded: positive immunosuppressive activity	–
C=CC[C@@H]1/C=C(\C)C[C@H](C)C[C@H](OC)[C@H]2O[C@@](O)(C(=O)C(=O)N3CCCC[C@H]3C(=O)O[C@H](/C(C)=C/[C@@H]3CC[C@@H](O)[C@H](OC)C3)[C@H](C)[C@@H](O)CC1=O)[C@H](C)C[C@@H]2OC [FK-506]	–	–	100
